These results are taken from US10544110B2, “Small molecule inhibitors of the nuclear translocation of androgen receptor for the treatment of castration-resistant prostate cancer” (University of Pittsburgh-Of the Commonwealth System of …, priority 2013, dated 2020).

Values joined by “and” are separate entries in the source; they are usually repeats but may differ in a detail not shown here. Identical values can stand only once.

The assay has as its system AR transcriptional activity (PSA promoter activity). Put plainly: PSA luciferase assay in C4-2-PSA-rl cells (Dual-Glo luciferase system). The conditions noted are these: for IC50 / activity in PSA luciferase assay (in words): C4-2-PSA-rl cells; for IC50: 24 h treatment, 1 nM R1881, mean and SD of 2-6 independent experiments; for activity in PSA luciferase assay (in words): up to 25 μM.

Turning to `Cc1ccccc1N1CCN(C(=O)[C@H]2C[C@@H]2c2ccccc2)CC1` (racemic) [Compound 16, ((1SR,2SR)-2-Phenylcyclopropyl)(4-(o-tolyl)piperazin-1-yl)methanone], the “activity in PSA luciferase assay (in words)” value (shortened to “activity … (in words)”) was “essentially inactive”. Moreover, the IC50 (24 h) is greater than 25 µM.

Consider `Cc1noc(C)c1CSCC(=O)N1CCN(c2ccccc2)CC1` [Compound 5a, 2-(((3,5-Dimethylisoxazol-4-yl)methyl)thio)-1-(4-phenylpiperazin-1-yl)ethanone], for which the “activity … (in words)” value was “deleted activity”. The compound further registered an IC50 (24 h) greater than 25 µM.

As for `Cc1ccccc1N1CCN(C(=O)CSCc2c(C)noc2C)CC1` [Compound 5b, 2-(((3,5-Dimethylisoxazol-4-yl)methyl)thio)-1-(4-(o-tolyl)piperazin-1-yl)ethanone], where the note is “24 h”, the midpoint of inhibition, the IC50, lay at 14.5 µM.

`Cc1cccc(N2CCN(C(=O)CSCc3c(C)noc3C)CC2)c1` [Compound 5c, 2-(((3,5-Dimethylisoxazol-4-yl)methyl)thio)-1-(4-(m-tolyl)piperazin-1-yl)ethanone]: the “activity … (in words)” value is “loss of activity”. Also, the 50% inhibitory concentration (IC50) (24 h) is greater than 25 µM.

Turning to `Cc1ccc(N2CCN(C(=O)CSCc3c(C)noc3C)CC2)cc1` [Compound 5d, 2-(((3,5-Dimethylisoxazol-4-yl)methyl)thio)-1-(4-(p-tolyl)piperazin-1-yl)ethanone], the “activity … (in words)” value is recorded as “loss of activity”. Where the note is “24 h”, this compound gave an IC50 greater than 25 µM.

As to `Cc1noc(C)c1CSCC(=O)N1CCN(c2ccccc2C#N)CC1` [Compound 5e, 2-(4-(2-(((3,5-Dimethylisoxazol-4-yl)methyl)thio)acetyl)piperazin-1-yl)benzonitrile], inhibition was half-maximal at 12 ± 1.6 µM (IC50). Also, under “24 h”, the concentration for half-maximal inhibition (IC50) fell in the range of 12 to 13 µM.

Compound `Cc1noc(C)c1CSCC(=O)N1CCN(c2ccccc2F)CC1` [Compound 5f, 2-(((3,5-Dimethylisoxazol-4-yl)methyl)thio)-1-(4-(2-fluorophenyl)piperazin-1-yl)ethan-1-one] yielded an IC50 of 12.6 ± 7.7 µM. Further, under “24 h”, the IC50 lay within 12 to 13 µM.

As for `Cc1noc(C)c1CSCC(=O)N1CCN(c2cccc3ccccc23)CC1` [Compound 5g, 2-(((3,5-Dimethylisoxazol-4-yl)methyl)thio)-1-(4-(naphthalen-1-yl)piperazin-1-yl)ethanone], the IC50 (24 h) stood at 11.1 µM.

In the case of `COc1ccccc1N1CCN(C(=O)CSCc2c(C)noc2C)CC1` [Compound 5h, 2-(((3,5-Dimethylisoxazol-4-yl)methyl)thio)-1-(4-(2-methoxyphenyl)piperazin-1-yl)ethanone], the “activity … (in words)” value was “complete loss of activity”. For the same compound, under “24 h”, the IC50 is greater than 25 µM.

On to `Cc1ccccc1N(C)CCN(C)C(=O)CSCc1c(C)noc1C` [Compound 5i, 2-(((3,5-Dimethylisoxazol-4-yl)methyl)thio)-N-methyl-N-(2-(methyl(o-tolyl)amino)ethyl) acetamide], for which the 50% inhibitory concentration (IC50) (24 h) was 18.4 µM.

Where the note is “24 h”, `Cc1ccccc1N1CCCN(C(=O)CSCc2c(C)noc2C)CC1` [Compound 5j, 2-(((3,5-Dimethylisoxazol-4-yl)methyl)thio)-1-(4-(o-tolyl)-1,4-diazepan-1-yl)ethan-1-one] yielded an IC50 of 11.1 µM.

`Cc1ccccc1N1C[C@@H](C)N(C(=O)CSCc2c(C)noc2C)[C@@H](C)C1` [Compound 5k, 1-(2,6-Dimethyl-4-(o-tolyl)piperazin-1-yl)-2-(((3,5-dimethylisoxazol-4-yl)methyl)thio)ethanone]: the “activity … (in words)” value is on record as “significantly more potent than 1”. Where the note is “24 h”, this compound displayed a concentration for half-maximal inhibition (IC50) of 3.1 µM.

With `Cc1noc(C)c1CSCC(=O)N1C[C@@H](C)N(c2ccccc2)[C@@H](C)C1` [Compound 5l, 1-(3,5-Dimethyl-4-phenylpiperazin-1-yl)-2-(((3,5-dimethylisoxazol-4-yl)methyl)thio)ethan-1-one], the half-maximal inhibitory concentration (IC50) came out at 14.7 ± 4.4 µM. Where the note is “24 h”, this compound came in with an IC50 of 15 to 17 µM.

Regarding `Cc1cccc(N2[C@H](C)CN(C(=O)CSCc3c(C)noc3C)C[C@@H]2C)c1` [Compound 5m, 1-(3,5-Dimethyl-4-(m-tolyl)piperazin-1-yl)-2-(((3,5-dimethylisoxazol-4-yl)methyl)thio)ethan-1-one], the half-maximal inhibitory concentration (IC50) was determined as 16.6 ± 4.8 µM. The same compound gave a concentration for half-maximal inhibition (IC50) (24 h) of 15 to 17 µM.

Turning to `Cc1ccccc1N1CCN(CCSCc2c(C)noc2C)CC1` [Compound 6, 3,5-Dimethyl-4-(((2-(4-(o-tolyl)piperazin-1-yl)ethyl)thio)methyl)isoxazole], it took 10.8 µM to reach half-maximal inhibition (24 h) (IC50). The “increase in activity relative to amide 5b” value (amine 6 vs amide 5b) came out at 1.3 fold.

The compound `Cc1ccccc1N1CCN(C(=O)CSCc2ccccc2)CC1` [Compound 7, 2-(Benzylthio)-1-(4-(o-tolyl)piperazin-1-yl)ethanone] yielded an IC50 of 13.7 ± 0.8 µM. Besides, under “24 h”, the IC50 was 14 µM.

On to `Cc1ccccc1N1CCN(C(=O)CCCc2ccccc2)CC1` [Compound 8, 4-Phenyl-1-(4-(o-tolyl)piperazin-1-yl)butan-1-one], for which the half-maximal inhibitory concentration (IC50) was found to be 14.4 ± 3.7 µM. For the same compound, the IC50 (24 h) came out at 14 µM.

For the compound `Cc1ccccc1N1CCN(C(=O)CSc2ccccc2)CC1` [Compound 9, 2-(Phenylthio)-1-(4-(o-tolyl)piperazin-1-yl)ethan-1-one], the “activity … (in words)” value was “abolished activity”. The same compound registered an IC50 (24 h) greater than 25 µM.

For `Cc1ccccc1N1CCN(C(=O)C#Cc2ccccc2)CC1` [Compound 10, 3-Phenyl-1-(4-(o-tolyl)piperazin-1-yl)prop-2-yn-1-one], the “activity … (in words)” value was “essentially inactive”. Further, inhibition (24 h) was half-maximal at 20.3 ± 11.6 µM (IC50).

In the case of `Cc1ccccc1N1CCN(C(=O)/C=C/c2ccccc2)CC1` [Compound 11, (E)-3-Phenyl-1-(4-(o-tolyl)piperazin-1-yl)prop-2-en-1-one], the “activity … (in words)” value was “essentially inactive”. Under “24 h”, the concentration for half-maximal inhibition (IC50) was greater than 25 µM.

On to `Cc1ccccc1N1CCN(C(=O)C[S+]([O-])Cc2c(C)noc2C)CC1` (centres unmarked) [Compound 12, 2-(((3,5-Dimethylisoxazol-4-yl)methyl)sulfinyl)-1-(4-(o-tolyl)piperazin-1-yl)ethan-1-one], for which the “activity … (in words)” value was “inactive”. The same compound had a 50% inhibitory concentration (IC50) (24 h) greater than 25 µM.

`Cc1ccccc1N1CCN(C(=O)CS(=O)(=O)Cc2c(C)noc2C)CC1` [Compound 13, 2-(((3,5-Dimethylisoxazol-4-yl)methyl)sulfonyl)-1-(4-(o-tolyl)piperazin-1-yl)ethan-1-one] yielded an IC50 (24 h) of 16.1 µM.

`Cc1ccccc1N1CCN(C(=O)/C=C\c2ccccc2)CC1` [Compound 14, (Z)-3-Phenyl-1-(4-(o-tolyl)piperazin-1-yl)prop-2-en-1-one] returned an IC50 (24 h) of 12.7 µM.

For the compound `Cc1ccccc1N1CCN(C(=O)C2CC2c2ccccc2)CC1` (centres unmarked) [Compound 15, (2-Phenylcyclopropyl)(4-(o-tolyl)piperazin-1-yl)methanone], the “activity … (in words)” value was “significantly more potent than 1”. The compound further had a half-inhibitory concentration (IC50) (24 h) of 2.9 µM.

As for `Cc1ccccc1N1CCN(C(=O)COCc2c(C)noc2C)CC1` [Compound 18a, 2-((3,5-Dimethylisoxazol-4-yl)methoxy)-1-(4-(o-tolyl)piperazin-1-yl)ethan-1-one], the “activity … (in words)” value is “abolished activity”. This compound returned a concentration for half-maximal inhibition (IC50) (24 h) greater than 25 µM.

On to `Cc1ccccc1N1CCN(C(=O)CN(C)Cc2ccccc2)CC1` [Compound 18b, 2-(Benzyl(methyl)amino)-1-(4-(o-tolyl)piperazin-1-yl)ethanone], for which the “activity … (in words)” value was “abolished activity”. The same compound returned an IC50 (24 h) greater than 25 µM.

For the setting “24 h”, `Cc1ccccc1N1CCN(S(=O)(=O)CSCc2c(C)noc2C)CC1` [Compound 18c, 3,5-Dimethyl-4-(((((4-(o-tolyl)piperazin-1-yl)sulfonyl)methyl)thio)methyl)isoxazole] came in with an IC50 of 7.2 µM.

With `Cc1ccccc1N1CCN(C(=O)NCSCc2c(C)noc2C)CC1` [Compound 20a, N-((((3,5-Dimethylisoxazol-4-yl)methyl)thio)methyl)-4-(o-tolyl)piperazine-1-carboxamide], the “activity … (in words)” value was “inactive”. Besides, the IC50 (24 h) was greater than 25 µM.

As to `Cc1ccccc1N1CCC(OC(=O)NCSCc2c(C)noc2C)CC1` [Compound 20b], the “activity … (in words)” value was “inactive”. This compound showed an IC50 (24 h) greater than 25 µM.

Take `Cc1ccccc1C1CC2CCC(C1)N2C(=O)CSCc1c(C)noc1C` (stereo not drawn) [Compound 26a, 2-(((3,5-Dimethylisoxazol-4-yl)methyl)thio)-1-(3-endo-(o-tolyl)-8-azabicyclo[3.2.1]octan-8-yl)ethanone]: the IC50 is 8 µM and 7.7 µM.

As to `Cc1ccccc1[C@@H]1C[C@H]2CC[C@@H](C1)N2C(=O)CSCc1c(C)noc1C` [Compound 26b], the IC50 is 8 µM and 7.9 µM.

`Cc1ccc(Cl)cc1N1CCN(C(=O)[C@H]2C[C@H]2c2ccc(F)cc2)CC1` [JJ-450A, (4-(5-chloro-2-methylphenyl)piperazin-1-yl)((1S,2R)-2-(4-fluorophenyl)cyclopropyl)methanone]: the “activity … (in words)” value was “significantly more potent than 1”. This compound registered a half-inhibitory concentration (IC50) (24 h) of 1.6 ± 0.1 µM.

`Cc1ccc(Cl)cc1N1CCN(C(=O)[C@@H]2C[C@@H]2c2ccc(F)cc2)CC1` [JJ-450B, (4-(5-Chloro-2-methylphenyl)piperazin-1-yl)((1R,2S)-2-(4-fluorophenyl)cyclopropyl)-methanone] showed a 50% inhibitory concentration (IC50) (24 h) of 13.1 ± 1.8 µM.
